Values quoted from earlier work as cited in patent US20090098217A1, “COMPOSITIONS AND METHODS FOR PROMOTING THICKER HAIR” (priority 2007, published 2009).
Read-outs that look alike come from different tables or passages of the source.

Columns and labels:
5-alpha-reductase [1] = conditions: 5 or 10 mg of zinc injected in rat prostate
5-alpha-reductase [2] = conditions: in vitro

[Zn] [zinc]
5-alpha-reductase activity (5-alpha-reductase [1]): significantly reduced 5-alpha-reductase activity | conversion of testosterone to DHT (5-alpha-reductase [2]; low concentrations of zinc): enhance conversion of testosterone to DHT | conversion of testosterone to DHT (5-alpha-reductase [2]; mM concentrations of zinc): inhibited it
